For this experiment, the system named is CD19+K562 cells. In words: Cytokine release by antiFL CAR T cells with hapten-labeled cells. The experiment is classed as cell-based. The following applies: trend; hapten-labeled cells prepared with 5 μM FL-DHPE. As for the experimental part:
Hapten-labeled cells were prepared. CD19+K562 cells were incubated either overnight with 5 μM FL-DHPE or for 20 min with an CD19 antibody labeled with FITC. The hapten-labeled cells were incubated with either one of two antiFL CAR T cells (FITC-E2 scFv, or 4M5.3 scFv). […] Hudecek M, et al., (2013) Clin Cancer Res. 19:3153-64, which is incorporated by reference in its entirety.
The levels of cytokines released by the antiFL CAR T cells were determined. […] The levels of released IFN-γ, and TNF-α were lower for hapten-labeled cells contacted with the antiFL(4M5.3) CAR T cell.

The results in this text go back to patent US20230172981A1, “METHODS AND COMPOSITIONS FOR STIMULATION OF CHIMERIC ANTIGEN RECEPTOR T CELLS WITH HAPTEN LABELLED CELLS” (Seattle Children's Hospital (dba Seattle Children's …, priority 2020, published 2023).

On to `CCCCCCCCCCCCCCCC(=O)OCC(COP(=O)(O)OCCNC(=S)Nc1ccc2c(c1)C(=O)OC21c2ccc(O)cc2Oc2cc(O)ccc21)OC(=O)CCCCCCCCCCCCCCC` (stereo not shown) [FL-DHPE, N-(Fluorescein-5-Thiocarbamoyl)-1,2-Dihexadecanoyl-sn-Glycero-3-Phosphoethanolamine], for which the “cytokine release induced, compared to cells prepared with CD19 antibody labeled with FITC” value is on record as “higher levels of cytokine release”.
